From paper PMC6403271, “Characterization, mechanism of action and optimization of activity of a novel peptide-peptoid hybrid against bacterial pathogens involved in canine skin infections” (Scientific Reports, 2019)
Square brackets hold non-standard residues; d marks the D form. Ends that are not written are not given here. Peptide text beside a SMILES is read from it. 2Nal = N[C@@H](Cc1ccc2ccccc2c1)C(=O)O; Nlys = NCCCCNCC(=O)O

Assays:
P. aeruginosa (26314) = assay type: cell-based, Pseudomonas aeruginosa; conditions: 26314, 18 h
Experimental: Activity of B1 was tested on […]. aeruginosa isolates and […]. pseudintermedius isolates (including 7 MRSP) that had been isolated in the diagnostic laboratory Sund Vet Diagnostik (University of Copenhagen) from various infections in dogs between 2009 and 2011. Representative […], and P. aeruginosa (26314) were used for testing the first set of B1 analogues. For antibacterial spectrum the following strains were used: Corynebacterium auriscanis, 31551, (54 C6, dog, ear, 2013); Enterococcus faecalis, 27404, (17 C7, dog, wound, 2011); Enterococcus faecium, 30951, (24 C1, dog, ear, 2013); Streptococcus canis, 26740-1, (14 H1, dog, ear, 2010); Staphylococcus aureus, 27266, (16 G9, dog, skin, 2010); Staphylococcus aureus, 27266, (16 G9, dog, skin, 2010); Staphylococcus pseudintermedius 22963, (3 B9, dog, 2007). Acinetobacter baumannii, 27065, (16 D1, dog, wound, 2010); E. coli, 30235, 23 A6, dog, wound, 2012; Klebsiella pneumoniae, 26233, (11 H5, dog, wound, 2010); Pasteurella canis, 31096, (24 C8, dog, skin, 2013); Proteus mirabilis, 25178, (9 A4, dog, ear, 2009); Pseudomonas aeruginosa 26314, 12 C5, dog, urine, 2010). MIC determination was performed by broth microdilution according to the Clinical and Laboratory Standard Institute (CLSI, […]-A3, 2008)[62]. In brief, each bacterial strain was diluted to concentration of 5 × 10^5 CFU/mL in Mueller Hinton broth II (MHB II) media (Oxoid) and added to a two-fold serial dilution of peptides and peptide-peptoid hybrids concentrations ranging from 1 to 64 μg/ml in 96-well plates (Nunc Internationals, Rochester, NY). The MICs were determined as a lowest concentration showing no visible growth after incubation for 18 hours at 37 °C. Experiments were performed in triplicates on two different days.

MSSA (ATCC 29213) = assay type: cell-based, Staphylococcus aureus; conditions: ATCC 29213, 18 h
Experimental: (§1) Activity of B1 was tested on 50P. aeruginosa isolates and 57S. pseudintermedius isolates (including 7 MRSP) that had been isolated in the diagnostic laboratory Sund Vet Diagnostik (University of Copenhagen) from various infections in dogs between 2009 and 2011. Representative MRSP (C22963), MSSA, and P. aeruginosa (26314) were used for testing the first set of B1 analogues.
(§2) MIC determination was performed by broth microdilution according to the Clinical and Laboratory Standard Institute (CLSI, M31-A3, 2008)[62]. In brief, each bacterial strain was diluted to concentration of 5 × 10^5 CFU/mL in Mueller Hinton broth II (MHB II) media (Oxoid) and added to a two-fold serial dilution of peptides and peptide-peptoid hybrids concentrations ranging from 1 to 64 µg/ml in 96-well plates (Nunc Internationals, Rochester, NY). The MICs were determined as a lowest concentration showing no visible growth after incubation for 18 hours at 37 °C. Experiments were performed in triplicates on two different days.

human red blood cells = assay type: cell-based
Experimental: (§3) Briefly, two-fold serial dilutions (2.35 to 150 μM) of compounds in phosphate buffer saline (PBS) were mixed with equal volume of 0.5% v/v suspension of fresh human red blood cells (RBC) in the same buffer. After 1 h incubation at 37 °C, plates were centrifuged and aliquots of the supernatants were transferred to clear 96-well plates. Absorbance at 414 nm was measured and normalized using a negative (PBS, 0%) and a positive (melittin, 100%) control. The EC10 and EC50 are concentrations at which 10% and 50% of RBC were lysed, respectively, as interpolated graphically by the y-axis intersection of the plotted data.

[1] = assay type: cell-based, human; conditions: human
Experimental: as §3

MRSP C22963 = assay type: cell-based, Staphylococcus pseudintermedius; conditions: 18 h
Experimental: as §1, §2

[2] = tested on: DNA synthesis in MRSP E104; experiment: Macromolecule biosynthesis rate, DNA (3H-Thymidine); assay type: cell-based, Staphylococcus pseudintermedius; conditions: MRSP E104, 1.25 µg/ml, 20 min
Experimental: (§4) Macromolecule biosynthesis rate was measured in MRSP E104 following a protocol adapted from Ling et al.[65]. Briefly, E104 overnight culture was sub-cultured 1:100 in MHB II and grown up to OD 0.2 at 600 nm. Cells were pelleted down by centrifugation and resuspended in fresh medium followed by incubation for 20 min with B1 or nisin at 1.5 µg/ml and 1.25 µg/ml, respectively, and radiolabeled precursor: (50µCi) 3H-Thymidine (PerkinElmer) and (5µCi) 3H-glucosamine hydrochloride per ml for DNA and cell wall, respectively. A positive control without antimicrobial was maintained. After incubation, samples were precipitated with equal volume of cold 30% TCA (Sigma) on ice. Precipitates were filtered on a membrane filter and subsequently subjected to two washes of cold 15% TCA and two washes of cold water using vacuum manifold. Subsequently, filters were air dried overnight and then transferred to 10 ml scintillation vials. Finally, scintillation fluid (3 ml) was added to each vial and ^3H count was taken in Beckman Coulter LS6500 liquid scintillation counter for one minute. The radioactive counts of the control samples were considered to have 100% precursor incorporation and macromolecule synthesis. The percentage rates of the antimicrobial-exposed samples were calculated accordingly. Each experiment was performed with replicates and the average rates of incorporation were plotted.

[3] = tested on: cell wall synthesis in MRSP E104; experiment: Macromolecule biosynthesis rate, cell wall (3H-glucosamine); assay type: cell-based, Staphylococcus pseudintermedius; conditions: MRSP E104, 1.25 µg/ml, 20 min
Experimental: as §4

MRSP E104 = experiment: High-throughput growth curves (BioScreen); assay type: cell-based, Staphylococcus pseudintermedius; conditions: growth curve analysis
Experimental: The effects of B1 on the growth of a reference MRSP strain (ST71, E104) were evaluated using BioScreen (Oy Growth Curves Ab LTd, Finland). A well characterized antimicrobial peptide, Nisin, was used as a positive control. […] The OD600 of each micro-culture was measured and recorded every 15 min after a 5 second pause of shaking in automatic mode. The recorded ODs were plotted against time to prepare the growth curves. The assay was performed with technical and biological replicates, and one representative result was presented.

[4] = tested on: membrane potential of MRSP E104; experiment: DiSC3(5) fluorescence-based membrane potential study; assay type: cell-based, Staphylococcus pseudintermedius; conditions: MRSP E104, nisin treatment
Experimental: Freshly sub-cultured E104 cells were labelled with 1 µM 3,3-Dipropylthiadicarbocyanine iodide [DiSC3(5)] (Sigma) in MHB II. The fluorescence spectra of labelled cells were plotted in the LS50B luminescence spectrometer (PerkinElmer) at excitation/emission wavelengths 546 nm/573 nm using time drive application of FLWINLAB software. After reading an initial stable emission spectra of DiSC3(5), labelled cells were treated with B1 or nisin or protonophore CCCP at 1, 1.5 and 1.25 µg/ml, respectively and the change of fluorescence over time was recorded. The increment of DiSC3(5) fluorescence upon addition of antimicrobials or CCCP (FUafter-treatment – FUbefore-treatment) was plotted. This experiment was performed twice and each time with two technical replicates.

Compound | Minimum Inhibitory Concentration P. aeruginosa (26314) (P. aeruginosa (26314)) | Minimum Inhibitory Concentration MSSA (ATCC 29213) (MSSA (ATCC 29213)) | Haemolysis EC10 (human red blood cells) | hemolysis at 1 h, 150 µM [1] | Minimum Inhibitory Concentration MRSP C22963 (MRSP C22963) | inhibition of DNA synthesis [2] | inhibition of cell wall synthesis [3] | MIC concentration (cell lysis) MRSP E104 (MRSP E104) | membrane potential, DiSC3(5) fluorescence emission [4]
CC(C)C[C@H](NC(=O)CN(CCCCN)C(=O)CN(CCCCN)C(=O)CNCCCCN)C(=O)N[C@@H](Cc1ccc2ccccc2c1)C(=O)N[C@@H](Cc1ccccc1)C(=O)N[C@@H](Cc1ccc2ccccc2c1)C(N)=O [Compound 29, NLys-NLys-NLys-Leu-(2-Nal)Ala-Phe-(2-Nal)Ala] (H-[Nlys][Nlys][Nlys]L[2Nal]F[2Nal]-NH2; N-terminus assumed) | 32 µg/mL | 16 to 32 µg/mL | 9 µM | 46% | 4 to 8 µg/mL | – | – | – | –
nisin (ITSISLCTPGCKTGALMGCNMKTATCHCSIHVSK; not fully specified (some residues, bridges); cysteine pairing not given here; also: lantibiotic nisin-A (post-translational modifications not given here); UniProt P13068 24-57, looked up) [well-characterized antimicrobial peptide used as control, reference compound] | – | – | – | – | – | 50% | 60% | 5 µg/mL | no fluorescence increment
